Assay results from US10138255B2, “Piperazine derivatives as HIV protease inhibitors” (Merck Sharp & Dohme Corp., priority 2014, dated 2018).

Each molecule was assayed on HIV-1 (H9IIIB strain) (assay: Cell-Based HIV Infection Assay Using a Reporter (MT4-GFP cells)). Conditions: Human immunodeficiency virus 1, inflection point (IP) of viral growth inhibition; MT4-GFP cells infected with HIV-1 H9IIIB; 50% normal human serum; mean of at least two independent experiments; read-out: Cell Based IP (50% NHS).
Method in brief: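 MT4-GFP cells (HIV LTR-driven GFP) bulk-infected with HIV-1 H9IIIB at low MOI for 24 h, washed, then exposed to compounds in RPMI plus 50% normal human serum, 0.4% DMSO. Infected cells counted at 24 and 48 h; R0 = 48 h/24 h ratio, inhibition normalised to DMSO and triple-drug control; IP from 4-parameter fit.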

`COC(=O)N[C@H](C(=O)N[C@H]1CCC[C@@H]1CC[C@H]1CN[C@@H]2CCCS(=O)(=O)N1C2)[C@@H](c1ccc(F)cc1)c1cc(F)cc(F)c1` [Example 56, methyl [(1S,2S)-2-(3,5-difluorophenyl)-1-{[(1S,2R)-2-{2-[(6R,9S)-2,2-dioxido-2-thia-1,7-diazabicyclo[4.3.1]dec-9-yl]ethyl}cyclopentyl]carbamoyl}-2-(4-fluorophenyl)ethyl]carbamate] and `N[C@H](C(=O)N[C@H]1CCC[C@@H]1CC[C@H]1CN[C@@H]2CCCS(=O)(=O)N1C2)[C@@H](c1ccc(F)cc1)c1cc(F)cc(F)c1` [Example 57, (βS)-β-(3,5-difluorophenyl)-N-[(1S,2R)-2-{2-[(6R,9S)-2,2-dioxido-2-thia-1,7-diazabicyclo[4.3.1]dec-9-yl]ethyl}cyclopentyl]-4-fluoro-L-phenylalaninamide] are within 1.5-fold of each other in EC50: 24 nM for the first, 27 nM for the second.

Compared with `COC(=O)N[C@H](C(=O)N[C@H]1CCC[C@@H]1CC[C@H]1CN[C@@H]2CCCS(=O)(=O)N1C2)[C@@H](c1ccc(Cl)cc1)C1CCOCC1` [Example 58, methyl [(1S,2R)-2-(4-chlorophenyl)-1-{[(1S,2R)-2-{2-[(6R,9S)-2,2-dioxido-2-thia-1,7-diazabicyclo[4.3.1]dec-9-yl]ethyl}cyclopentyl]carbamoyl}-2-(tetrahydro-2H-pyran-4-yl)ethyl]carbamate], `COC(=O)N[C@H](C(=O)N[C@H]1CCC[C@@H]1CC[C@H]1CN[C@@H]2CCCS(=O)(=O)N1C2)[C@@H](c1ccc(Cl)cc1)c1ccc(OC)nc1` [Example 78, methyl [(1S,2S)-2-(4-chlorophenyl)-1-{[(1S,2R)-2-{2-[(1S,2S)-2,2-dioxido-2-thia-1,7-diazabicyclo[4.3.1]dec-9-yl]ethyl}cyclopentyl]carbamoyl}-2-(6-methoxypyridin-3-yl)ethyl]carbamate] is 1.6-fold lower in EC50: 59 nM for the first, 38 nM for the second. The second is the more potent here.

Compared with `N[C@H](C(=O)Nc1cccc(F)c1CCC1CNC2CCCS(=O)(=O)N1C2)[C@@H](c1ccc(F)cc1)c1ccc(C2CC2)cc1` (stereo partly drawn) [Example 59, (βR)-4-cyclopropyl-N-{2-[2-(2,2-dioxido-2-thia-1,7-diazabicyclo[4.3.1]dec-9-yl)ethyl]-3-fluorophenyl}-β-(4-fluorophenyl)-L-phenylalaninamide], `COC(=O)N[C@H](C(=O)Nc1cccc(F)c1CCC1CNC2CCCS(=O)(=O)N1C2)[C@@H](c1ccc(F)cc1)c1ccc(C2CC2)cc1` (stereo partly drawn) [Example 60, methyl [(1S,2R)-2-(4-cyclopropylphenyl)-1-({2-[2-(2,2-dioxido-2-thia-1,7-diazabicyclo[4.3.1]dec-9-yl)ethyl]-3-fluorophenyl}carbamoyl)-2-(4-fluorophenyl)ethyl]carbamate] is 1.6-fold lower in EC50: 16 nM for the first, 9.9 nM for the second.

First: N[C@H](C(=O)Nc1cccc(F)c1CCC1CNC2CCCS(=O)(=O)N1C2)[C@H](c1ccc(F)cc1)C1CCC(F)(F)CC1 (stereo partly drawn) [Example 61, (βS)-β-(4,4-difluorocyclohexyl)-N-{2-[2-(2,2-dioxido-2-thia-1,7-diazabicyclo[4.3.1]dec-9-yl)ethyl]-3-fluorophenyl}-4-fluoro-L-phenylalaninamide]
Second: N[C@H](C(=O)Nc1cccc(F)c1CCC1CNC2CCCS(=O)(=O)N1C2)[C@H](c1ccc(F)cc1)C1CC(F)(F)C1 (stereo partly drawn) [Example 64, (βS)-β-(3,3-difluorocyclobutyl)-N-{2-[2-(2,2-dioxido-2-thia-1,7-diazabicyclo[4.3.1]dec-9-yl)ethyl]-3-fluorophenyl}-4-fluoro-L-phenylalaninamide]
The EC50 of the first is 1.6-fold lower: 160 nM for the first, 260 nM for the second. The first is the more potent here.

Compared with `COC(=O)N[C@H](C(=O)Nc1cccc(F)c1CCC1CNC2CCCS(=O)(=O)N1C2)[C@H](c1ccc(F)cc1)C1CCC(F)(F)CC1` (stereo partly drawn) [Example 62, methyl [(1S,2S)-2-(4,4-difluorocyclohexyl)-1-({2-[2-(2,2-dioxido-2-thia-1,7-diazabicyclo[4.3.1]dec-9-yl)ethyl]-3-fluorophenyl}carbamoyl)-2-(4-fluorophenyl)ethyl]carbamate], `COC(=O)N[C@H](C(=O)Nc1cccc(F)c1CCC1CNC2CCCS(=O)(=O)N1C2)[C@H](c1ccc(F)cc1)C1CC(F)(F)C1` (stereo partly drawn) [Example 65, methyl [(1S,2S)-2-(3,3-difluorocyclobutyl)-1-({2-[2-(2,2-dioxido-2-thia-1,7-diazabicyclo[4.3.1]dec-9-yl)ethyl]-3-fluorophenyl}carbamoyl)-2-(4-fluorophenyl)ethyl]carbamate] is 4-fold lower in EC50: 190 nM for the first, 47 nM for the second.

`COC(=O)N[C@H](C(=O)Nc1cccc(F)c1CCC1CNC2CCCS(=O)(=O)N1C2)[C@@H](c1ccc(F)cc1)c1cccc(C(F)(F)F)c1` (stereo partly drawn) [Example 63, methyl [(1S)-2-({2-[2-(2,2-dioxido-2-thia-1,7-diazabicyclo[4.3.1]dec-9-yl)ethyl]-3-fluorophenyl}amino)-1-{(S)-(4-fluorophenyl)[3-(trifluoromethyl)phenyl]methyl}-2-oxoethyl]carbamate] and `COC(=O)N[C@H](C(=O)Nc1cccc(F)c1CCC1CNC2CCCS(=O)(=O)N1C2)[C@H](c1cncc(Cl)c1)c1ccc(Cl)c(F)c1` (stereo partly drawn) [Example 73, methyl [(1S,2S)-2-(4-chloro-3-fluorophenyl)-2-(5-chloropyridin-3-yl)-1-({2-[2-(2,2-dioxido-2-thia-1,7-diazabicyclo[4.3.1]dec-9-yl)ethyl]-3-fluorophenyl}carbamoyl)ethyl]carbamate] are within 1.5-fold of each other in EC50: 14 nM for the first, 18 nM for the second.

First: COc1ccc([C@H](c2ccc(F)c(F)c2)[C@H](N)C(=O)Nc2cccc(F)c2CCC2CNC3CCCS(=O)(=O)N2C3)cn1 (stereo partly drawn) [Example 66, (βS)-N-{2-[2-(2,2-dioxido-2-thia-1,7-diazabicyclo[4.3.1]dec-9-yl)ethyl]-3-fluorophenyl}-3,4-difluoro-β-(6-methoxypyridin-3-yl)-L-phenylalaninamide]
Second: COc1cc([C@H](c2ccc(Cl)c(F)c2)[C@H](N)C(=O)Nc2cccc(F)c2CCC2CNC3CCCS(=O)(=O)N2C3)ccn1 (stereo partly drawn) [Example 67, (βR)-4-chloro-N-{2-[2-(2,2-dioxido-2-thia-1,7-diazabicyclo[4.3.1]dec-9-yl)ethyl]-3-fluorophenyl}-3-fluoro-β-(2-methoxypyridin-4-yl)-L-phenylalaninamide]
The EC50 of the first is 1.8-fold higher: 8.2 nM for the first, 4.5 nM for the second.

First: COC(=O)N[C@H](C(=O)Nc1cccc(F)c1CCC1CNC2CCCS(=O)(=O)N1C2)[C@H](c1ccnc(OC)c1)c1ccc(Cl)c(F)c1 (stereo partly drawn) [Example 69, methyl [(1S,2R)-2-(4-chloro-3-fluorophenyl)-1-({2-[2-(2,2-dioxido-2-thia-1,7-diazabicyclo[4.3.1]dec-9-yl)ethyl]-3-fluorophenyl}carbamoyl)-2-(2-methoxypyridin-4-yl)ethyl]carbamate]
Second: N[C@H](C(=O)Nc1cccc(F)c1CCC1CNC2CCCS(=O)(=O)N1C2)[C@H](c1cncc(Cl)c1)c1ccc(Cl)c(F)c1 (stereo partly drawn) [Example 72, (βS)-4-chloro-β-(5-chloropyridin-3-yl)-N-{2-[2-(2,2-dioxido-2-thia-1,7-diazabicyclo[4.3.1]dec-9-yl)ethyl]-3-fluorophenyl}-3-fluoro-L-phenylalaninamide]
The EC50 of the first is 2.5-fold higher: 13 nM for the first, 5.1 nM for the second.

`CCC(CC)[C@H](c1ccc(Cl)cc1)[C@H](N)C(=O)Nc1cccc(F)c1CCC1CNC2CCCS(=O)(=O)N1C2` (stereo partly drawn) [Example 70, (βR)-4-chloro-N-{2-[2-(2,2-dioxido-2-thia-1,7-diazabicyclo[4.3.1]dec-9-yl)ethyl]-3-fluorophenyl}-β-(1-ethylpropyl)-L-phenylalaninamide] and `CCC(CC)[C@H](c1ccc(Cl)cc1)[C@H](NC(=O)OC)C(=O)Nc1cccc(F)c1CCC1CNC2CCCS(=O)(=O)N1C2` (stereo partly drawn) [Example 71, methyl [(1S,2R)-2-(4-chlorophenyl)-1-({2-[2-(2,2-dioxido-2-thia-1,7-diazabicyclo[4.3.1]dec-9-yl)ethyl]-3-fluorophenyl}carbamoyl)-3-ethylpentyl]carbamate] are within 1.5-fold of each other in EC50: 49 nM for the first, 41 nM for the second.

Compared with `N[C@H](C(=O)Nc1cccc(F)c1CCC1CNC2CCCS(=O)(=O)N1C2)[C@H](CCC1CCOCC1)c1ccc(Cl)c(F)c1` (stereo partly drawn) [Example 74, (βR)-4-chloro-N-{2-[2-(2,2-dioxido-2-thia-1,7-diazabicyclo[4.3.1]dec-9-yl)ethyl]-3-fluorophenyl}-3-fluoro-β-[2-(tetrahydro-2H-pyran-4-yl)ethyl]-L-phenylalaninamide], `N[C@H](C(=O)N[C@H]1CCC[C@@H]1CC[C@H]1CN[C@@H]2CCCS(=O)(=O)N1C2)[C@H](c1cncc(C(F)(F)F)c1)c1ccc(Cl)c(F)c1` [Example 76, (βS)-4-chloro-N-[(1S,2R)-2-{2-[(6R,9S)-2,2-dioxido-2-thia-1,7-diazabicyclo[4.3.1]dec-9-yl]ethyl}cyclopentyl]-3-fluoro-β-[5-(trifluoromethyl)pyridin-3-yl]-L-phenylalaninamide] is 5-fold lower in EC50: 151 nM for the first, 30 nM for the second.

Going from `O=C(C[C@@H](c1ccc(Cl)c(F)c1)N1CCOCC1)N[C@H]1CCC[C@@H]1CC[C@H]1CN[C@@H]2CCCS(=O)(=O)N1C2` [Example 75, (3S)-3-(4-chloro-3-fluorophenyl)-N-[(1S,2R)-2-{2-[(6R,9S)-2,2-dioxido-2-thia-1,7-diazabicyclo[4.3.1]dec-9-yl]ethyl}cyclopentyl]-3-morpholin-4-ylpropanamide] to `COC(=O)N[C@H](C(=O)N[C@H]1CCC[C@@H]1CC[C@H]1CN[C@@H]2CCCS(=O)(=O)N1C2)[C@H](c1cncc(F)c1)c1ccc(Cl)c(F)c1` [Example 77, methyl [(1S,2S)-2-(4-chloro-3-fluorophenyl)-1-{[(1S,2R)-2-{2-[(6R,9S)-2,2-dioxido-2-thia-1,7-diazabicyclo[4.3.1]dec-9-yl]ethyl}cyclopentyl]carbamoyl}-2-(5-fluoropyridin-3-yl)ethyl]carbamate], the EC50 falls from 110 nM to 57 nM (1.9-fold).

`COC(=O)N[C@H](C(=O)N[C@H]1CCC[C@@H]1CC[C@H]1CN[C@@H]2CCCS(=O)(=O)N1C2)[C@H](c1cncc(C(F)(F)F)c1)c1ccc(Cl)c(F)c1` [Example 79, methyl {(1S,2S)-2-(4-chloro-3-fluorophenyl)-1-{[(1S,2R)-2-{2-[(6R,9S)-2,2-dioxido-2-thia-1,7-diazabicyclo[4.3.1]dec-9-yl]ethyl}cyclopentyl]carbamoyl}-2-[5-(trifluoromethyl)pyridin-3-yl]ethyl}carbamate] was tested, and the EC50 was 31 nM.
